From patent US11890317B2, “Cell-protecting composition containing cyclo histidine-proline as active ingredient” (NovMetaPharma Co., Ltd., priority 2016, dated 2024)

Legend:
[1] = system: kidney cells (LLC-PK1 cells); assay: Inhibition of gentamicin (GM)-induced apoptosis of kidney cells, cell viability by cell counting kit-8; format: cell-based
Experimental: Specifically, the cyclo histidine-proline (CHP) was produced by requesting only a target spec (99% purity) from a peptide manufacturer (Bachem; Bubendorf, Switzerland). The gentamycin was purchased from Sigma Chemical Co. (St. Louis, Mo., USA). The kidney cells (LLC-PK1 cells) were purchased from the American Type Culture Collection (ATCC; Manassas, VA, USA). The present inventors simultaneously treated and cultured the kidney cell (LLC-PK1 cell) with CHP 0.1, 1, 5 or 10 mg/mL respectively together with GM 5 mg/mL for 6 hours (FIG. 1A).
(§1) Further, the present inventors pre-treated and pre-cultured the kidney cell (LLC-PK1 cell) with CHP 0.1, 1, 5 or 10 mg/mL for 2 hours and subsequently post-treated and post-cultured the kidney cell (LLC-PK1 cell) with GM 5 mg/mL for 4 hours (FIG. 1B). The cell viability was analyzed using cell counting kit-8 (Dojindo Laboratories; Kumamoto, Japan). Subsequently, the cell viability was measured with a microplate reader (Molecular Devices, LLC; Sunnyvale, CA, USA).

[2] = system: liver cells (Chang liver cells); assay: Inhibition of acetaminophen (APAP)-induced apoptosis of liver cells, cell viability by cell counting kit-8; format: cell-based
Experimental: Specifically, the acetaminophen was purchased from Sigma Chemical Co. (St. Louis, Mo., USA). The liver cells (Chang liver cells) were purchased from the American Type Culture Collection (ATCC; Manassas, VA, USA). The present inventors simultaneously treated and cultured the liver cell (Chang liver cell) with CHP 0.1, 1, 5 or 10 mg/mL respectively together with APAP 15 mM for 24 hours (FIG. 2A).
as §1, with “liver” for “kidney”, “(Chang liver” for “(LLC-PK1”, “24” for “2”, “APAP 15 mM” for “GM 5 mg/mL”, “24” for “4”, “2B).” for “1B).”

[3] = system: ICR mice; assay: Kidney function protection against cisplatin kidney toxicity in mice, serum creatinine; format: in vivo; details: CHP 1 mg/kg orally daily for 1 week, then cisplatin 10 mg/kg i.p., serum after 72 hours, FIG. 5
Source text: (§2) Five mice were grouped into one group. We fed water and food to mice in the cage. We adapted the mice for experiments for one week prior to the experiment.

[4] = system: SD mice; assay: Liver function protection against cisplatin liver toxicity in mice, serum ALT and AST; format: in vivo; details: CHP 1, 5 or 10 mg/L in drinking water for 1 week, then cisplatin 7.5 mg/kg i.p., serum after 24 hours
Experimental: To determine the protective effect of CHP on liver toxicity in mice, the present inventors purchased SD mice from Koatech, and the mice were raised under constant conditions (temperature: 23±3° C., relative humidity: 55±10%, daily cycle: 12 hours). Five mice were grouped into one group. We fed water and food to mice in the cage. We adapted the mice for experiments for one week prior to the experiment. After the adaption period, the mice were grouped into five groups.
1 group ingested water and was set as a negative control. […] These 3, 4 and 5 groups were set as liver damage prevention effect groups. The CHP ingestion using drinking water was performed once every two days.
To measure ALT and AST, we collected blood from the abdominal aorta from a mouse. We separated only serum from the blood using a centrifugal separator and analyzed the serum using an automatic analyzer (Hitachi 7180; Tokyo, Japan).
We conducted individual comparisons using the […] post-test thereon.

[5] = system: ICR mice; assay: Kidney function protection against cisplatin kidney toxicity in mice, serum BUN; format: in vivo; details: CHP 1 mg/kg orally daily for 1 week, then cisplatin i.p., serum after 24 hours, FIG. 6
Source text: as §2

gentamicin [GM, reference compound]
apoptosis of kidney cells caused by the drug ([1]; GM 5 mg/mL): induced apoptosis of kidney cells

O=C1N[C@@H](Cc2c[nH]cn2)C(=O)N2CCC[C@@H]12 [CHP, cyclo histidine-proline]
inhibition of acetaminophen (APAP)-induced apoptosis, liver cells co-treated with APAP and CHP ([2]; CHP 0.1, 1, 5 or 10 mg/mL together with APAP 15 mM for 24 hours, FIG. 2A): significantly inhibited
inhibition of apoptosis of liver cells induced by acetaminophen (APAP) ([2]; CHP 0.1, 1, 5 or 10 mg/mL, APAP 15 mM, FIG. 2A and 2B): inhibited the apoptosis of liver cells induced by the acetaminophen (APAP) in a concentration-dependent manner
cisplatin-induced creatinine [3]: significantly reduced
cisplatin-induced ALT ([4]; FIG. 3): significantly reduced
cisplatin-induced AST ([4]; FIG. 4): significantly reduced
inhibition of gentamicin (GM)-induced apoptosis, kidney cells pre-treated with CHP ([1]; CHP 0.1, 1, 5 or 10 mg/mL pre-treatment 2 hours, then GM 5 mg/mL 4 hours, FIG. 1B): greatly inhibited
inhibition of apoptosis of kidney cells induced by gentamicin (GM) ([1]; CHP 0.1, 1, 5 or 10 mg/mL, GM 5 mg/mL, FIG. 1A and 1B): inhibited the apoptosis of kidney cells induced by the gentamicin (GM) in a concentration-dependent manner
cisplatin-induced BUN [5]: significantly reduced

CC(=O)Nc1ccc(O)cc1 [APAP, acetaminophen, reference compound]
apoptosis of liver cells caused by the drug ([2]; APAP 15 mM): induced apoptosis of liver cells
